Data as given in patent publication US3946040A, “Propynyl benzyl ethers” (Hoffmann-La Roche Inc., priority 1973, dated 1976).

Key:
Format in all cases: in vivo
[1] = system: flies; assay: Flies: placed in sprayed petri dishes; dead or crippled flies counted; settings: after 24 hours, stated logarithmically (3 = 10^^-3 g/cm^3); for LD50 concentration based on insect-poison: I:P 100:0
Method: For each test, two petri dishes are sprayed with a solution of the active ingredient(s) in acetone or an aqueous spray-wash of the active ingredient(s). The dosage for each treated surface is 10^^-5 g/cm^2 = 1 kg/ha. After 2-3 hours, 10 flies aged 4-5 days are placed in each petri dish. After 1, 3 and 24 hours, the flies which are dead or crippled are counted.

[2] = system: spider-mite eggs; assay: Spider-mites on sprayed leaf discs, assessment based on the mortality of the eggs (O); settings: stated logarithmically (3 = 10^^-3 g/cm^3), 8640 min; for LD50 concentration (O, mortality of the eggs; refers to the propynyl benzyl ether itself): I:P 0:100, ether alone
Method: (§1) For each test, three beam leaf discs each with a 2-day infection and with 20-40 spider-mites and eggs are sprayed with a solution of the active ingredient(s) in acetone or an aqueous spray-wash of the active ingredient(s). The dosage for each treated surface is 10^^-5 g/cm^2 = 1 kg/ha. After 2 days, the discs are assessed for dead spider-mites and after 6 days for dead spider-mites and killed eggs. (Assessment scheme: from 0-5, where 0 = 0% and 5 = 100% mortality).
O = assessment based on the mortality of the eggs.

[3] = system: spider-mites; assay: Spider-mites on sprayed leaf discs, assessment based on the mortality of the spider-mites (W); settings: stated logarithmically (3 = 10^^-3 g/cm^3); for LD50 concentration based on insect-poison (W, mortality of the spider-mites): I:P 100:0; for LD50 concentration (W, mortality of the spider-mites; refers to the propynyl benzyl ether itself): I:P 0:100, ether alone
Method: as §1
W = assessment based on the mortality of the spider-mites;

[4] = system: black bean aphids; assay: Aphids: seedling of the field bean with black bean aphids sprayed; dead and surviving aphids counted; settings: stated logarithmically (3 = 10^^-3 g/cm^3); for LD50 concentration based on insect-poison: I:P 100:0; for LD50 concentration (refers to the propynyl benzyl ether itself): I:P 0:100, ether alone
Method: For each test, one seedling of the field bean with ca 50-100 black bean aphids is sprayed with a solution of the active ingredient(s) in acetone or an aqueous spray-wash of the active ingredient(s). The seedlings are individually placed in tubes in water. After 24 and 48 hours, the dead and surviving aphids are counted and the activity calculated in %.

[5] = Malathion group, I:P 0:100, ether alone
[6] = Methoxychlor group, I:P 0:100, ether alone
[7] = Sevin group, I:P 0:100, ether alone

For C=CCC1=C(C)C(OC(=O)C2C(C=C(C)C)C2(C)C)CC1=O (mixture of isomers) [Allethrin, 2-allyl-4-hydroxy-3-methyl-2-cyclopenten-1-one esterified with a mixture of cis and trans 2,2-dimethyl-3-(2-methylpropenyl)-cyclopropanecarboxylic acid, reference compound], the “LD50 concentration based on insect-poison” value ([1]; Allethrin alone) was 5.5, the “LD50 concentration based on insect-poison (O, mortality of the eggs)” value ([2]; Allethrin alone, I:P 100:0) was under 3 and the “LD50 concentration based on insect-poison (W, mortality of the spider-mites)” value ([3]; Allethrin alone) was 3.4. The “LD50 concentration based on insect-poison” value ([4]; Allethrin alone) was 5.0.

C#CCOCc1ccc2c(c1)OCO2 [A, 3,4-(methylenedioxy)-α-(2-propynyloxy)-toluene] was tested, and the “LD50 concentration (refers to the propynyl benzyl ether itself)” value [1, 5] was over 3.5, the “LD50 concentration (refers to the propynyl benzyl ether itself)” value [1, 6] was over 3.5 and the “LD50 concentration (refers to the propynyl benzyl ether itself)” value [1, 7] was 3.5. For the same compound, the “LD50 concentration (W, mortality of the spider-mites; refers to the propynyl benzyl ether itself)” value ([3]; Sevin group) was under 2, the “LD50 concentration (refers to the propynyl benzyl ether itself)” value ([4]; Allethrin group) was 3.0 and the “LD50 concentration (refers to the propynyl benzyl ether itself)” value ([4]; Methoxychlor group) was 3.0.

With C#CCOCc1ccc(OC)c(OC)c1 [B, 3,4-dimethoxy-α-(2-propynyloxy)-toluene] the “LD50 concentration (refers to the propynyl benzyl ether itself)” value ([1]; Allethrin group, I:P printed 0:10, ether alone) was 3.3, the “LD50 concentration (refers to the propynyl benzyl ether itself)” value [1, 5] was 3.3 and the “LD50 concentration (refers to the propynyl benzyl ether itself)” value [1, 6] was 3.3. For the same compound, the “LD50 concentration (refers to the propynyl benzyl ether itself)” value [1, 7] was 3.5, the “LD50 concentration (O, mortality of the eggs; refers to the propynyl benzyl ether itself)” value ([2]; Allethrin group) was 2.7 and the “LD50 concentration (O, mortality of the eggs; refers to the propynyl benzyl ether itself)” value ([2]; Methoxychlor group) was 2.7. The “LD50 concentration (O, mortality of the eggs; refers to the propynyl benzyl ether itself)” value ([2]; Sevin group) was 2.7, the “LD50 concentration (W, mortality of the spider-mites; refers to the propynyl benzyl ether itself)” value ([3]; Allethrin group) was 3.0 and the “LD50 concentration (W, mortality of the spider-mites; refers to the propynyl benzyl ether itself)” value ([3]; Malathion group) was 3.0. For the same compound, the “LD50 concentration (W, mortality of the spider-mites; refers to the propynyl benzyl ether itself)” value ([3]; Methoxychlor group) was 3.0, the “LD50 concentration (W, mortality of the spider-mites; refers to the propynyl benzyl ether itself)” value ([3]; Sevin group) was 3.0 and the “LD50 concentration (refers to the propynyl benzyl ether itself)” value ([4]; Allethrin group) was 3.0. The “LD50 concentration (refers to the propynyl benzyl ether itself)” value ([4]; Malathion group) was 3.3 and the “LD50 concentration (refers to the propynyl benzyl ether itself)” value ([4]; Methoxychlor group) was 3.3.

In the case of CCOC(=O)CC(SP(=S)(OC)OC)C(=O)OCC (stereo not drawn) [Malathion, S-[1,2-bis-(carbethoxy)-ethyl]-0,0-dimethyl-dithiophosphate, reference compound], the “LD50 concentration based on insect-poison” value ([1]; Malathion alone) is reported as 5.1, the “LD50 concentration based on insect-poison (W, mortality of the spider-mites)” value ([3]; Malathion alone) is reported as under 4 and the “LD50 concentration based on insect-poison” value ([4]; Malathion alone) is reported as 5.1.
